Laboratory results taken from ChEMBL document CHEMBL3232945 (Eur J Med Chem, 2014).

Tests used:
Rattus norvegicus [1] = assay: Toxicity in anaesthetized-Wistar rat assessed as Q-T ECG interval at 40 mg/kg, ip after 45 mins (reference value: 78.8 +/- 0.927 ms); type: organism-based; set-up: dose 40 mg/kg, route intraperitoneal; details: in vivo, 0.75 h
Rattus norvegicus [2] = assay: Toxicity in […] normotensive Wistar rat assessed as mean arterial pressure at 40 mg/kg, ip measured immediately at 0 min (reference value: 94.21 +/- 2.065 mmHg); type: organism-based, Artery; set-up: dose 40 mg/kg, route intraperitoneal; details: in vivo, 0 h
Rattus norvegicus [3] = assay: Toxicity in […] normotensive Wistar rat assessed as mean arterial pressure at 40 mg/kg, ip after 15 mins (reference value: 93.81 +/- 1.543 mmHg); type: organism-based, Artery; set-up: dose 40 mg/kg, route intraperitoneal; details: in vivo, 0.25 h
Rattus norvegicus [4] = assay: Toxicity in […] normotensive Wistar rat assessed as mean arterial pressure at 40 mg/kg, ip after 30 mins (reference value: 94.68 +/- 1.213 mmHg); type: organism-based, Artery; set-up: dose 40 mg/kg, route intraperitoneal; details: in vivo, 0.5 h
Rattus norvegicus [5] = assay: Antihypertensive activity in Wistar rat assessed as mean arterial pressure at 40 mg/kg, ip after 15 mins (reference value: 195.68 +/- 1.623 mmHg); type: functional, Artery; details: route intraperitoneal
Rattus norvegicus [6] = assay: Antiarrhythmic activity in barium chloride-induced Wistar rat assessed as increase in mortality time at 40 mg/kg, ip administered 60 mins before barium chloride challenge (reference value: 682.8 +/- 9.656 secs); type: functional, Heart; details: route intraperitoneal
Rattus norvegicus [7] = assay: Toxicity in anaesthetized-Wistar rat assessed as P-Q ECG interval at 40 mg/kg, ip after 45 mins (reference value: 52.5 +/- 0.780 ms); type: organism-based; set-up: dose 40 mg/kg, route intraperitoneal; details: in vivo, 0.75 h
Rattus norvegicus [8] = assay: Toxicity in anaesthetized-Wistar rat assessed as QRS ECG interval at 40 mg/kg, ip after 45 mins (reference value: 20.2 +/- 1.348 ms); type: organism-based; set-up: dose 40 mg/kg, route intraperitoneal; details: in vivo, 0.75 h
Rattus norvegicus [9] = assay: Toxicity in anaesthetized-Wistar rat assessed as QRS ECG interval at 40 mg/kg, ip measured immediately at 0 min (reference value: 19.6 +/- 1.142 ms); type: organism-based; set-up: dose 40 mg/kg, route intraperitoneal; details: in vivo, 0 h
Rattus norvegicus [10] = assay: Toxicity in anaesthetized-Wistar rat assessed as P-Q ECG interval at 40 mg/kg, ip after 60 mins (reference value: […] +/- 0.924 ms); type: organism-based; set-up: dose 40 mg/kg, route intraperitoneal; details: in vivo, 1 h
Rattus norvegicus [11] = assay: Toxicity in anaesthetized-Wistar rat assessed as Q-T ECG interval at 40 mg/kg, ip after 30 mins (reference value: 78.3 +/- 0.860 ms); type: organism-based; set-up: dose 40 mg/kg, route intraperitoneal; details: in vivo, 0.5 h
Rattus norvegicus [12] = assay: Antihypertensive activity in Wistar rat assessed as mean arterial pressure at 40 mg/kg, ip after 60 mins (reference value: 195.11 +/- 0.531 mmHg); type: functional, Artery; details: route intraperitoneal
Rattus norvegicus [13] = assay: Toxicity in anaesthetized-Wistar rat assessed as Q-T ECG interval at 40 mg/kg, ip after 15 mins (reference value: 79.4 +/- 1.270 ms); type: organism-based; set-up: dose 40 mg/kg, route intraperitoneal; details: in vivo, 0.25 h
Rattus norvegicus [14] = assay: Toxicity in anaesthetized-Wistar rat assessed as Q-T ECG interval at 40 mg/kg, ip measured immediately at 0 min (reference value: 78.8 +/- 1.030 ms); type: organism-based; set-up: dose 40 mg/kg, route intraperitoneal; details: in vivo, 0 h
Rattus norvegicus [15] = assay: Toxicity in anaesthetized-Wistar rat assessed as QRS ECG interval at 40 mg/kg, ip after 15 mins (reference value: 18.9 +/- 1.563 ms); type: organism-based; set-up: dose 40 mg/kg, route intraperitoneal; details: in vivo, 0.25 h
Rattus norvegicus [16] = assay: Antiarrhythmic activity in barium chloride-induced Wistar rat assessed as increase in appearance time of arrhythmia at 40 mg/kg, ip administered 60 mins before barium chloride challenge (reference value: 129.4 +/- 4.373 sec); type: functional, Heart; details: route intraperitoneal
Rattus norvegicus [17] = assay: Toxicity in anaesthetized-Wistar rat assessed as P-Q ECG interval at 40 mg/kg, ip after 30 mins (reference value: […] +/- 0.927 ms); type: organism-based; set-up: dose 40 mg/kg, route intraperitoneal; details: in vivo, 0.5 h
Rattus norvegicus [18] = assay: Toxicity in anaesthetized-Wistar rat assessed as QRS ECG interval at 40 mg/kg, ip after 60 mins (reference value: 19.3 +/- 0.873 ms); type: organism-based; set-up: dose 40 mg/kg, route intraperitoneal; details: in vivo, 1 h
Rattus norvegicus [19] = assay: Toxicity in anesthetized-normotensive Wistar rat assessed as heart rate at 40 mg/kg, ip after 15 mins (reference value: 313.93 +/- 9.912 bpm); type: organism-based; set-up: dose 40 mg/kg, route intraperitoneal; details: in vivo, 0.25 h
Rattus norvegicus [20] = assay: Toxicity in anaesthetized-Wistar rat assessed as P-Q ECG interval at 40 mg/kg, ip after 15 mins (reference value: 52.2 +/- 1.158 ms); type: organism-based; set-up: dose 40 mg/kg, route intraperitoneal; details: in vivo, 0.25 h
Rattus norvegicus [21] = assay: Toxicity in anaesthetized-Wistar rat assessed as QRS ECG interval at 40 mg/kg, ip after 30 mins (reference value: 19.9 +/- 1.393 ms); type: organism-based; set-up: dose 40 mg/kg, route intraperitoneal; details: in vivo, 0.5 h
Rattus norvegicus [22] = assay: Toxicity in anaesthetized-Wistar rat assessed as Q-T ECG interval at 40 mg/kg, ip after 60 mins (reference value: 79.7 +/- 0.965 ms); type: organism-based; set-up: dose 40 mg/kg, route intraperitoneal; details: in vivo, 1 h
Rattus norvegicus [23] = assay: Antihypertensive activity in Wistar rat assessed as mean arterial pressure at 40 mg/kg, ip measured immediately at 0 min (reference value: 194.08 +/- 1.962 mmHg); type: functional, Artery; details: route intraperitoneal
Rattus norvegicus [24] = assay: Toxicity in anesthetized-normotensive Wistar rat assessed as heart rate at 40 mg/kg, ip measured immediately at 0 min (reference value: 316.62 +/- 9.643 bpm); type: organism-based; set-up: dose 40 mg/kg, route intraperitoneal; details: in vivo, 0 h
Rattus norvegicus [25] = assay: Toxicity in anesthetized-normotensive Wistar rat assessed as heart rate at 40 mg/kg, ip after 30 mins (reference value: 317.68 +/- 7.631 bpm); type: organism-based; set-up: dose 40 mg/kg, route intraperitoneal; details: in vivo, 0.5 h
Rattus norvegicus [26] = assay: Antihypertensive activity in Wistar rat assessed as mean arterial pressure at 40 mg/kg, ip after 30 mins (reference value: 194.72 +/- 1.002 mmHg); type: functional, Artery; details: route intraperitoneal
Rattus norvegicus [27] = assay: Toxicity in […] normotensive Wistar rat assessed as mean arterial pressure at 40 mg/kg, ip after 45 mins (reference value: 94.83 +/- 0.943 mmHg); type: organism-based, Artery; set-up: dose 40 mg/kg, route intraperitoneal; details: in vivo, 0.75 h
Rattus norvegicus [28] = assay: Toxicity in anesthetized-normotensive Wistar rat assessed as heart rate at 40 mg/kg, ip after 60 mins (reference value: 314.96 +/- 9.442 bpm); type: organism-based; set-up: dose 40 mg/kg, route intraperitoneal; details: in vivo, 1 h
Rattus norvegicus [29] = assay: Toxicity in anesthetized-normotensive Wistar rat assessed as heart rate at 40 mg/kg, ip after 45 mins (reference value: 316.82 +/- 8.452 bpm); type: organism-based; set-up: dose 40 mg/kg, route intraperitoneal; details: in vivo, 0.75 h
Rattus norvegicus [30] = assay: Antihypertensive activity in Wistar rat assessed as mean arterial pressure at 40 mg/kg, ip after 45 mins (reference value: 193.96 +/- 0.865 mmHg); type: functional, Artery; details: route intraperitoneal
Rattus norvegicus [31] = assay: Toxicity in anaesthetized-Wistar rat assessed as P-Q ECG interval at 40 mg/kg, ip measured immediately at 0 min (reference value: 52.4 +/- 0.927 ms); type: organism-based; set-up: dose 40 mg/kg, route intraperitoneal; details: in vivo, 0 h
Rattus norvegicus [32] = assay: Toxicity in […] normotensive Wistar rat assessed as mean arterial pressure at 40 mg/kg, ip after 60 mins (reference value: 95.07 +/- 1.973 mmHg); type: organism-based, Artery; set-up: dose 40 mg/kg, route intraperitoneal; details: in vivo, 1 h

| SMILES | Activity (Rattus norvegicus [1]) [min] | Activity (Rattus norvegicus [2]) [mmHg] | Activity (Rattus norvegicus [3]) [mmHg] | Activity (Rattus norvegicus [4]) [mmHg] | Activity (Rattus norvegicus [5]) [mmHg] | Time (Rattus norvegicus [6]) [s] | Activity (Rattus norvegicus [7]) [min] | Activity (Rattus norvegicus [8]) [min] | Activity (Rattus norvegicus [9]) [min] | Activity (Rattus norvegicus [10]) [min] | Activity (Rattus norvegicus [11]) [min] | Activity (Rattus norvegicus [12]) [mmHg] | Activity (Rattus norvegicus [13]) [min] | Activity (Rattus norvegicus [14]) [min] | Activity (Rattus norvegicus [15]) [min] | Time (Rattus norvegicus [16]) [s] | Activity (Rattus norvegicus [17]) [min] | Activity (Rattus norvegicus [18]) [min] | Activity (Rattus norvegicus [19]) [bpm] | Activity (Rattus norvegicus [20]) [min] | other results |
| --- | --- | --- | --- | --- | --- | --- | --- | --- | --- | --- | --- | --- | --- | --- | --- | --- | --- | --- | --- | --- | --- |
| CCCN(CCC)CC(O)CN1C(=O)/C(=C\c2ccccc2)S/C1=N\c1ccccc1 (stereo not drawn) | 74.9 | 95.41 | 91.1 | 79.16 | 184.76 | 938.4 | 52.4 | 24.1 | 22.8 | 50.2 | 73.4 | 172.23 | 72.9 | 72.5 | 23.2 | 266.1 | 51.3 | 22.5 | 319.34 | 49.7 | Activity (Rattus norvegicus [21]): 23.8 ms; Activity (Rattus norvegicus [22]): 72.7 ms; Activity (Rattus norvegicus [23]): 193.57 mmHg; Activity (Rattus norvegicus [24]): 329.62 bpm; Activity (Rattus norvegicus [25]): 289.52 bpm; Activity (Rattus norvegicus [26]): 170.1 mmHg; Activity (Rattus norvegicus [27]): 72.37 mmHg; Activity (Rattus norvegicus [28]): 312.43 bpm; Activity (Rattus norvegicus [29]): 305.32 bpm; Activity (Rattus norvegicus [30]): 153.26 mmHg; Activity (Rattus norvegicus [31]): 49.4 ms; Activity (Rattus norvegicus [32]): 88.98 mmHg |
| O=C1/C(=C\c2ccccc2)S/C(=N\c2ccccc2)N1CC(O)CN(c1ccccc1)c1ccccc1 (stereo not drawn) | 0.00119 | 94.09 | 87.32 | 85.08 | 183.55 | 768.5 | 53.4 | 21.6 | 20.3 | 52.6 | 72.3 | 169.93 | 71.5 | 70.2 | 21.2 | 234.8 | 54.1 | 20.4 | 305.46 | 51.2 | Activity (Rattus norvegicus [21]): 22.1 ms; Activity (Rattus norvegicus [22]): 70.7 ms; Activity (Rattus norvegicus [23]): 194.26 mmHg; Activity (Rattus norvegicus [24]): 316.34 bpm; Activity (Rattus norvegicus [25]): 292.41 bpm; Activity (Rattus norvegicus [26]): 169.59 mmHg; Activity (Rattus norvegicus [27]): 85.43 mmHg; Activity (Rattus norvegicus [28]): 302.92 bpm; Activity (Rattus norvegicus [29]): 289.26 bpm; Activity (Rattus norvegicus [30]): 159.27 mmHg; Activity (Rattus norvegicus [31]): 50.6 ms; Activity (Rattus norvegicus [32]): 90.27 mmHg |
| O=C1/C(=C\c2ccccc2)S/C(=N\c2ccccc2)N1CC(O)CN1CCC(C(O)(c2ccccc2)c2ccccc2)CC1 (stereo not drawn) | 74.9 | 91.39 | 76.73 | 70.26 | 176.43 | 1162.1 | 52.4 | 24.2 | 22.4 | 50.2 | 74.3 | 162.87 | 73.4 | 72.9 | 23.1 | 323.4 | 51.3 | 22.5 | 310.46 | 50.1 | Activity (Rattus norvegicus [21]): 23.8 ms; Activity (Rattus norvegicus [22]): 72.7 ms; Activity (Rattus norvegicus [23]): 193.69 mmHg; Activity (Rattus norvegicus [24]): 332.05 bpm; Activity (Rattus norvegicus [25]): 279.31 bpm; Activity (Rattus norvegicus [26]): 139.21 mmHg; Activity (Rattus norvegicus [27]): 64.53 mmHg; Activity (Rattus norvegicus [28]): 302.12 bpm; Activity (Rattus norvegicus [29]): 295.73 bpm; Activity (Rattus norvegicus [30]): 135.96 mmHg; Activity (Rattus norvegicus [31]): 49.8 ms; Activity (Rattus norvegicus [32]): 71.94 mmHg |
| O=C1/C(=C\c2ccccc2)S/C(=N\c2ccccc2)N1CC(O)CN1CCN(C2CCCCC2)CC1 (stereo not drawn) | 0.00122 | 93.99 | 85.61 | 77.84 | 185.69 | 944.9 | 50.6 | 22.8 | 20 | 51.3 | 73.3 | 158.39 | 72.9 | 72.8 | 21.4 | 297.5 | 52.3 | 22.6 | 312.65 | 51.7 | Activity (Rattus norvegicus [21]): 21.9 ms; Activity (Rattus norvegicus [22]): 71.2 ms; Activity (Rattus norvegicus [23]): 195.99 mmHg; Activity (Rattus norvegicus [24]): 324.13 bpm; Activity (Rattus norvegicus [25]): 289.54 bpm; Activity (Rattus norvegicus [26]): 151.12 mmHg; Activity (Rattus norvegicus [27]): 64.01 mmHg; Activity (Rattus norvegicus [28]): 303.42 bpm; Activity (Rattus norvegicus [29]): 294.42 bpm; Activity (Rattus norvegicus [30]): 138.63 mmHg; Activity (Rattus norvegicus [31]): 51.2 ms; Activity (Rattus norvegicus [32]): 75.43 mmHg |
